row,Compound,melting point [°C]
1,Nc1ncc(-c2ccccc2COc2ccccc2)s1,154
2,Cc1cc(C(C)N(O)C(N)=O)c(C)s1 (stereo not drawn),146 to 147
3,CNc1nc(-c2ccc3c(c2)NC(=O)CO3)c(-c2ccccc2)s1,236 to 248
4,Cc1ccc(-c2ccc3c(c2)C=C(C(=O)Nc2ccc(CNCc4ccccc4)cc2)CCO3)cc1,147 to 148
5,Cn1ccnc1-c1ccc(O)cc1,239 to 242
6,CCCc1c(OCc2ccc(C=CC(=O)O)cc2)ccc(C(C)=O)c1O,203 to 204
7,Cc1ccc([C@H](CC(=O)O)NC(=O)Nc2c(O)c3ccccc3n(Cc3ccccc3Cl)c2=O)cc1,134 to 136
8,CC1Cc2ccc(Br)cc2C(c2ccc([N+](=O)[O-])cc2)=NN1C(N)=O (stereo not drawn),193 to 203
9,CC1(C)Oc2ccc(C#N)cc2C(C(=O)Nc2ccccc2)=C1O,167 to 170
10,CN1CC(=O)N2[C@H](c3ccc(O)c(O)c3)c3[nH]c4ccccc4c3C[C@@H]2C1=O,224 to 226
11,Cc1cc(SCc2sc(-c3ccc(C(F)(F)F)c(F)c3)nc2C)ccc1OCC(=O)O,< 50
12,O=c1nc(-c2cccc(-c3ccco3)n2)sc2ccccc12,218
13,C#CC(C)(O)c1ccc(Oc2ccc(Cl)cc2)cc1 (stereo not drawn),55 to 57
14,Cc1ccc2c(CCNCC#N)c[nH]c2c1,92
15,COc1ccc(CNc2cc(F)cc(C#N)c2)cc1,93 to 94
16,CC(C)(OC(=O)NC(Cc1c[nH]c2ccccc12)C(=O)NC(Cc1ccccc1)C(N)=O)C(Cl)(Cl)Cl (stereo not drawn),187
17,Cc1cc(Cc2ccc(O)cc2)n(C)c1C(=O)c1ccc(Cl)cc1,183 to 185
18,CC(C)(C)OC(=O)NC[C@@H]1CNC(=O)O1,116
19,CCCc1c(C(=O)C(C)C)c2ccc(C(N)=O)cc2n1Cc1ccccc1C(N)=O,273 to 274
20,CS(=O)(=O)c1cc2[nH]c(=O)c(=O)n(C3CCCCC3)c2cc1-n1cccc1,> 280
21,Clc1nc(Oc2ccccc2)nc(Oc2ccccc2)n1,119 to 121
22,Nc1ccc(Sc2nnc3ccc(-c4ccc(F)cc4)cn23)cc1,217
23,CCc1cccc(C)c1CNc1cc(Br)cc2c1nc(C)n2C,145 to 147
24,COC(=O)C(C)c1cc(=O)n(Cc2ccccc2)c2ccccc12 (stereo not drawn),90 to 92.5
25,Cc1nc(-n2c(=O)ccc3cc(OCc4ccccc4)ccc32)sc1C(=O)NCc1ccccc1,213 to 216

row,Compound,melting point [°C]
1,Cn1c(COc2ccc(CC3SC(=O)NC3=O)cc2)nc2ccc(Oc3ccc4cccc(NC(=O)NS(=O)(=O)c5ccccc5)c4c3)cc21 (stereo not drawn),199 to 205
2,CC1(C)C(=O)N(c2ccc(N)c(C(F)(F)F)c2)C(=O)N1CCCCCN1C(=O)N(c2ccc(N)c(C(F)(F)F)c2)C(=O)C1(C)C,108 to 109
3,CC(C)(C)OC(=O)Nc1ccc(OC2CN(CC(c3ccccc3)c3ccccc3)C2)cc1,149 to 151
4,CCCCc1nn(-c2ccc([N+](=O)[O-])cc2C(F)(F)F)c(=O)n1Cc1ccc(-c2ccccc2S(=O)(=O)NC(C)(C)C)cc1,> 78
5,Cc1ccc2c(c1)Sc1cc(C)ccc1O2,69 to 70
6,Nc1ccccc1-c1nc2ccccc2c(=O)o1,163 to 165
7,COc1cccc(Cn2c(=O)[nH]c3cc(Cl)cc(Cl)c3c2=O)c1,216 to 220
8,CCn1c(C)nc2cc([N+](=O)[O-])c(Sc3cccc4cnccc34)cc21,226 to 229
9,CS(=O)(=O)c1ccc(Oc2cc3nc(-c4ccccc4)oc3cc2[N+](=O)[O-])cc1,123 to 125
10,COc1ccnc(CCc2nc3cc(-c4ccc(S(=O)(=O)N(C)c5ccc(Cl)cc5)cc4)cnc3[nH]2)c1,191 to 192
11,Cc1cc(SC2CC(=O)N(C)C2=O)cc(C(C)(C)C)c1N (stereo not drawn),92 to 94
12,Cc1ccc(-c2ccccc2C(=O)NC(C)C#N)cc1 (stereo not drawn),102 to 104
13,CCOc1ccc(C(=O)NCc2ccc3c(c2)C(=O)N(C2(C)CCC(=O)NC2=O)C3=O)cc1 (stereo not drawn),163 to 165
14,O=C(c1ccccc1)N1CCC2OC2C1 (stereo not drawn),212 to 213
15,CCCCc1nn(-c2cc(NC(=O)CC)ccc2Br)c(=O)n1Cc1ccc(-c2ccccc2S(=O)(=O)NC(C)(C)C)cc1F,119 to 121
16,O=C(c1ccc[nH]1)C1CCCCC1,83 to 84
17,O=C(O)CCCCCOc1cccc(OCc2ccccc2)c1,72 to 73
18,CCCCCCc1cc2c(cc1C(=O)Oc1ccc(C(=O)O)cn1)C(C)(C)CC2,104 to 105
19,Nc1nc2c(sc(=O)n2C2CC(O)C(CO)O2)c(=O)[nH]1 (stereo not drawn),> 170
20,Fc1ccc(-c2nc(S)ncc2CCN2CCC(=Cc3ccccc3F)CC2)cc1,157 to 158
21,CC(C)SCCCCCCCCCCCC(=O)Nc1ccccc1OCCCC(=O)O,82 to 84
22,COC(=O)c1ccnc(Cl)c1N,91 to 92
23,Cc1oc(-c2ccccc2)nc1CCc1noc(COc2ccccc2CC(=O)O)n1,120 to 121
24,CSc1nc(N)nc2c1ncn2COCCO,188 to 191
25,Cc1cc2cccc(-c3ccc(Cl)cc3Cl)n2n1,86.9 to 90

row,Compound,melting point [°C]
1,C=CCn1nc(CCCC)c(Cc2ccc(-c3ccccc3-c3nnn[nH]3)cc2)c1COC,39 to 41
2,Cc1cc(CNC(=O)c2cc(-c3ccc(-c4ccccc4C)cc3)nn2C)ccc1OC(C)(C)C(=O)O,90 to 100
3,O=C(O)C(CCN1C(=O)c2ccccc2C1=O)Oc1c(Br)cc(-c2ccc(-c3c(Cc4ccccc4)sc4ccccc34)cc2)cc1Br (stereo not drawn),113 to 115
4,NC(=O)c1ccc(-c2ccc(N)cc2)cc1,281 to 284
5,Cc1cccc(C)c1NC(C)(C)C(=O)O,148
6,CCCCCN1C(=O)C(c2ccc3c(c2)OCO3)(c2cc3c(cc2O)OCO3)c2ccccc21 (stereo not drawn),75 to 76
7,CCOC(=O)COc1cc(-c2ccc(C)cc2)nc2cccc(C(F)(F)F)c12,134
8,Cc1ccc(S(=O)(=O)NC(C)P(=O)(Oc2ccccc2)c2ccccc2)cc1 (stereo not drawn),178 to 181
9,O=c1nc(-c2ccc3c(c2)OCCO3)c2cc3c(cc2[nH]1)OCO3,> 300
10,Cc1cc(N2C(=O)c3ccccc3C2=O)c(C)cc1N=CN(C)C,170 to 173
11,CC(C)C(=O)N1C2=NCCN2C(=O)c2nc(C(C)C)[nH]c21,271 to 273
12,CCCCc1nc2c(N)nc3cc(-c4ccc(OCCC)cc4)ccc3c2n1CC(C)C,194 to 197
13,Cc1c(C=O)c2cnnc(OCc3ccc(F)cc3)c2n1C[C@H]1C[C@@H]1C,138 to 140
14,Nc1cc(-n2ncc(Cl)c(Cl)c2=O)c(F)cc1Cl,186
15,COc1cccc(C(=O)Cl)c1OC(C)=O,51 to 54
16,CC(O)CN(C)Cc1cc2c(=O)c(C(=O)NCc3ccc(Cl)cc3)cn(C)c2o1 (stereo not drawn),152
17,CCOC(=O)c1cnn(-c2ccc(Cl)cc2C(F)(F)F)c1C#N,70 to 72
18,CCN(CC)c1cccc2c1OC1(CC1)C2=O,39.3
19,Cc1cnc(SCc2cc3c(cc2O)CCCO3)n1C,139 to 140
20,Cc1ncccc1-c1nc(C(F)(F)F)cn1-c1ccc(S(C)(=O)=O)cc1,160 to 161
21,C=C1CCC2C3CCC4=CC(=O)CCC4C3CCC12C (stereo not drawn),83 to 89
22,Clc1ccc(C2(Cl)c3ccc(Cl)cc3-c3ncncc32)cc1 (stereo not drawn),152 to 153
23,Cn1c2c(ccc1=O)C(NCCc1ccc(Cl)cc1Cl)CCC2 (stereo not drawn),102 to 103
24,O=C1NC(=O)C(Cc2ccc(OCCn3nc(-c4ccccc4)c4ccccc4c3=O)cc2)S1 (stereo not drawn),198
25,N#CCC=Cc1ccccc1S(N)(=O)=O,144 to 145

row,Compound,melting point [°C]
1,O=C(C=C1CCCCC1)C1Cc2c([nH]c3ccccc23)C(c2ccc3c(c2)OCO3)N1 (stereo not drawn),116 to 118
2,CC(C)n1nc(-c2sc(C(=O)NC3CCCCC3)nc2-c2ccccc2)ccc1=O,225 to 226
3,Cn1nc(-c2ncc(Cl)cc2F)c(I)c1OC(F)F,77 to 78
4,CCOC(=O)[C@H](CCC1CCCCC1)N[C@H]1COc2ccccc2N(CC(=O)O)C1=O,135 to 139
5,O=C(CCCCc1ncc[nH]1)NNC(=O)N1Cc2ccccc2Oc2ccc(Cl)cc21,164 to 166
6,Cc1cn(-c2cc(NC(=O)OC(C)(C)C)cc(C(F)(F)F)c2)cn1,186 to 188
7,Cc1cc(NC(=O)c2c(Cl)cccc2Cl)c2nccc(Cl)c2c1C,190 to 193
8,O=C(O)CCc1nc2c(F)c(F)cc(F)c2s1,123 to 125
9,CCCCN1CCN(c2nsc3nc4ccccc4n23)CC1,121 to 122
10,CCC1CCc2c(sc3cc(NC(C)=O)ccc3c2=O)C1 (stereo not drawn),243
11,Cn1c(=O)c2c(-c3ccccc3)n(-c3cc([N+](=O)[O-])ccc3N)cc2n(C)c1=O,> 300
12,COCCCCCC=C(NC(=O)C1CC1(C)C)C(=O)O (stereo not drawn),71 to 72
13,Cc1cc(N)ccc1-c1ccc(-c2ccc(N)cc2C)o1,174 to 176
14,Cc1ccccc1S(=O)(=O)NC1CCc2sc(-c3ccc(=O)[nH]n3)cc2C1 (stereo not drawn),242 to 247
15,Cc1csc2c1-n1cccc1/C2=N/OCCBr,92
16,CC(C)(C)c1cc(I)c2c(c1)CNC1(CCSCC1)O2,123 to 124
17,CN(Cc1cc(C(F)(F)F)cc(C(F)(F)F)c1)C(=O)c1nc(NCc2ccccc2)ncc1-c1ccccc1,128 to 130
18,Cn1ncc(/C=C/C(=O)Nc2ccc(Cc3nc4ccccc4[nH]3)cc2)c1-c1ccc(F)cc1,> 300
19,Cc1ccccc1NC(=O)Nc1ccc(CC(=O)ON2C(=O)CCC2=O)cc1,211 to 212
20,Cc1c2c(cc3c(=O)c4c(F)cccc4oc13)CC(C(=O)O)O2 (stereo not drawn),292 to 295
21,COCCOCCOc1ccc2c(c1)S(=O)(=O)N(Cc1ccccc1)C2=O,86 to 88
22,C#Cc1ccc([Si](OC)(OC)OC)cc1,38 to 39
23,CC(C)c1cccc(NC(=O)[C@H](Br)C(C)C)c1O,108 to 109
